{"source": "paper PMC4738315", "about": "“How to unveil self-quenched fluorophores and subsequently map the subcellular distribution of exogenous peptides” (Scientific Reports, 2016)", "origin": "cited, not measured here", "molecular_target": "anionic phospholipids (DOPC/DOPG or POPC/POPG)", "settings": "POPC/POPG 75:25; ref 9 (Gonçalves et al., 2005); read-out: Affinity for PLs, Kd", "source_text": "page 25: Supplementary Table 1: Sequences of the three studied CPPs and their respective affinities for glycosaminoglycans or anionic phospholipids. Peptide Sequence Affinity for HS, Kd, µM[a] Affinity for PLs, Kd, µM Penetratin (Pen)3 RQIKIWFQNRRMKWKK nd[b] 63 (DOPC/DOPG 90:10)4 Tat peptide (Tat)5 YGRKKRRQRRR 1.676 83 (POPC/POPG 75:25)7 Arg98 RRRRRRRRR 0.329 12 (POPC/POPG 75:25)9 [a] HS: heparan sulfate. [b] nd: not determined. 25", "note": "pKd: −log10 of the molar value."}
{"sequence": "RRRRRRRRR [Arg9, nona-arginine, nona-arginine cell-penetrating peptide]", "values": [{"measurement": "pKd", "value": 4.92}]}
